From patent US10161932B2, “Azetidine-substituted fluorescent compounds” (HOWARD HUGHES MEDICAL INSTITUTE, priority 2014, dated 2018) come the findings set out here.

Structures can show the parent of a compound that is named as a salt. Where two headings read alike, the source gives them in different places.

The nature of data set [1]: Quantum yield measurement (Quantaurus-QY spectrometer). The class given is physicochemical. Particulars: for increase in quantum yield / brightness relative to parent N,N-dialkyl dye: azetidine-substituted vs parent fluorophore.
Procedure: All reported quantum yield values were measured in under identical conditions using a Quantaurus-QY spectrometer (C11374, Hamamatsu). Measurements were carried out using dilute samples (A<0.1) and self-absorption corrections were performed using the instrument software. Reported values are averages (n=3).
A short description of data set [2]: Fluorescence lifetime measurement. Particulars: for τ: Table 2, 10 mM HEPES pH 7.3 per table footnote.
Procedure: For fluorescence lifetime measurements, a pulse picker (Model 350-160, ConOptics) was placed in the laser beam to reduce the pulse frequency from 80 MHz to 20 MHz. Samples (2 μM dye diluted in 50 mM HEPES, pH 7.2, H2O, or CH3OH) were excited at 830 nm laser wavelength and 6 mW laser power. The emitted light was collected by the fast-timing APD and fed to the single-photon counting board (TimeHarp200; PicoQuant). Timing pulses were obtained from a PIN diode (DET01CFC; ThorLabs) monitoring the 20 MHz pulse train. The temporal impulse response of the system was determined by second harmonic generation of laser pulses using a thin nonlinear crystal in place of a dye sample. The lifetime decay data was fit to a single exponential decay function using a custom MATLAB program.
Data set [3] can be described thus: Absorption and fluorescence spectroscopy of dyes. The format is physicochemical. Particulars: for ε / λem / λmax: 10 mM HEPES pH 7.3; for ε (extinction coefficient): aqueous buffer. The method, then: Phosphate buffered saline (PBS) was at pH 7.4 unless otherwise noted.
Spectroscopy was performed using 1-cm path length, 3.5-mL quartz cuvettes from Starna Cells or 1-cm path length, 1.0-mL quartz microcuvettes from Hellma. All measurements were taken at ambient temperature (22±2° C.) in 10 mM HEPES, pH 7.3 buffer unless otherwise noted. Absorption spectra were recorded on a Cary Model 100 spectrometer (Varian); reported values for extinction coefficients (ε) are averages (n=3). Fluorescence spectra were recorded on a Cary Eclipse fluorometer (Varian). Normalized spectra are shown for clarity.

Data set [4] concerns SnapTag-H2B. Briefly: Nuclear labeling of live HeLa cells expressing SnapTag-H2B. The class given is cell-based. An excerpt: In this Example, an azetidinyl-coumarin label was used for cellular imaging. The performance of a commercial SnapTag ligand (i.e., Snap Cell 430) was compared to a novel azetidinyl derivative (Example 52), which was synthesized from a 7-azetidinyl-coumarin-3-carboxylic acid. Under identical transient transfection, labeling, and imaging conditions, H2B-SnapTag-expressing cells were stained with the red fluorescent nuclear stain DRAQ5 and either Snap Cell 430 or the azetidinyl ligand. Using the DRAQ5 staining as a spatial reference (FIGS. 26 and 27) the intensity of individual nuclei labeled by either SnapTag ligand was measured.
HeLa cells (ATCC) and U2OS cells (ATCC) were cultured in Dulbecco's modified eagle medium (DMEM; Life Technologies) supplemented with 10% v/v fetal bovine serum (FBS; Life Technologies), 1 mM GlutaMax (Life Technologies), and 1 mM sodium pyruvate (Sigma) and maintained at 37° C. in a humidified 5% v/v CO2 environment. These cell lines undergo regular mycoplasma testing by the Janelia Cell Culture Facility. […]
Three separate systems were used to acquire microscopic images. […] Other live-cell single super-resolution imaging experiments were recorded on a custom-built three-camera RAMM frame (ASI) microscope using an 1.4 NA PLAPON 60×OSC objective (Olympus), and a 300 mm focal length tube lens (LAO-300.0, Melles Griot), resulting in 100× overall magnification. […]

The compound `O=C([O-])c1ccccc1-c1c2ccc(=[N+]3CCC3)cc-2oc2cc(N3CCC3)ccc12` [Example 7, 2-(3,6-Di(azetidin-1-yl)xanthylium-9-yl)benzoate] yielded a ϕ in data set [1] (Table 1, 10 mM HEPES pH 7.3) of 0.88. The compound further yielded a ϕ in data set [1] (Table 2, 10 mM HEPES pH 7.3) of 0.88. The “ϕ (quantum yield)” value in data set [1] (aqueous buffer) came to 0.88. In data set [1] (one-photon excitation), the “brighter than the pyrrolidine derivative” value came to 60%. Also, in data set [2], the “τ (fluorescence lifetime)” value was found to be 3.8 ns and the τ was 3.84 ns. Also, in data set [3] (Table 1), the ε is reported as 101,000 M^−1 cm^−1, the λem was 571 nm and the λmax came to 549 nm. Besides, in data set [3] (Table 2), the ε is listed as 101,000 M^−1 cm^−1, the λem turned out to be 571 nm and the λmax was determined as 549 nm. Further, the “higher extinction coefficient than the other dyes” value in data set [3] (rhodamines of Table 2) was roughly 30%.

With `Nc1nc(OCc2ccc(CNC(=O)c3cc4ccc(N5CCC5)cc4oc3=O)cc2)c2nc[nH]c2n1` [Example 52, N-(4-(((2-Amino-9H-purin-6-yl)oxy)methyl)benzyl)-7-(azetidin-1-yl)-2-oxo-2H-chromene-3-carboxamide], the nuclear fluorescence intensity entry in data set [4] (DRAQ5 reference) was “brighter nuclear labeling”. In data set [4] (n=50), the “median nuclear intensity relative to cells labeled with the commercial compound” value was “five-fold higher”.

In data set [1] (Table 3, 10 mM HEPES pH 7.3), `O=C(O)c1ccccc1-c1c2ccc(=O)cc-2oc2cc(N3CCC3)ccc12` [Example 59, 2-(6-(Azetidin-1-yl)-3-oxo-3H-xanthen-9-yl)benzoic acid] showed a ϕ of 0.85. In addition, the “ϕ (quantum yield)” value in data set [1] (aqueous buffer) was 0.85. The “increase in quantum yield / brightness relative to parent N,N-dialkyl dye” value in data set [1] was found to be 4 fold. Moreover, in data set [3] (Table 3), the ε is 59,000 M^−1 cm^−1, the λem stood at 546 nm and the λmax is on record as 519 nm.

Take `c1cc2cc3ccc(N4CCC4)cc3nc2cc1N1CCC1` [Example 60, 3,6-Di(azetidin-1-yl)acridine]: the ϕ in data set [1] (Table 3, 10 mM HEPES pH 7.3) was determined as 0.52. Besides, in data set [1] (aqueous buffer), the “ϕ (quantum yield)” value is listed as 0.52. Besides, the “increase in quantum yield / brightness relative to parent N,N-dialkyl dye” value in data set [1] was 2.5 fold. Further, in data set [3] (Table 3), the ε was 47,000 M^−1 cm^−1, the λem turned out to be 531 nm and the λmax amounted to 492 nm.

As to `c1cc2nc3ccc(=[N+]4CCC4)cc-3oc2cc1N1CCC1` [Example 61, 3,7-Di(azetidin-1-yl)phenoxazin-5-ium trifluoroacetate], the ϕ in data set [1] (Table 3, 10 mM HEPES pH 7.3) is given as 0.24. Moreover, the “ϕ (quantum yield)” value in data set [1] (aqueous buffer) turned out to be 0.24. For the same compound, the “increase in quantum yield / brightness relative to parent N,N-dialkyl dye” value in data set [1] stood at 3.4 fold. Moreover, in data set [3] (Table 3), the ε was 99,000 M^−1 cm^−1, the λem stood at 661 nm and the λmax was determined as 647 nm. The “ε (extinction coefficient)” value in data set [3] amounted to 99000 M⁻¹ cm⁻¹.

As to `CCN(CC)c1ccc2nc3ccc(=[N+](CC)CC)cc-3oc2c1.[O-][Cl+3]([O-])([O-])[O-]` [Oxazine 1, reference compound], the ϕ in data set [1] (Table 3, 10 mM HEPES pH 7.3) is recorded as 0.07. The “ϕ (quantum yield)” value in data set [1] (aqueous buffer) was 0.07. Moreover, in data set [3] (Table 3), the ε is reported as 111,000 M^−1 cm^−1, the λem is 669 nm and the λmax is reported as 655 nm. The “ε (extinction coefficient)” value in data set [3] is 111000 M⁻¹ cm⁻¹.

As to `CN(C)c1ccc2c(-c3ccccc3C(=O)[O-])c3ccc(N(C)C)cc3[o+]c2c1` [TMR, tetramethylrhodamine, reference compound], the “ϕ (quantum yield)” value in data set [1] (aqueous buffer) is on record as 0.41. Also, the ϕ in data set [1] (pH 7.3) worked out at 0.41. In data set [2], the “τ (fluorescence lifetime)” value was determined as 2.2 ns and the τ is reported as 2.21 ns. In addition, in data set [3] (Table 2), the ε is 78,000 M^−1 cm^−1, the λem was 572 nm and the λmax was 548 nm. The “ε (extinction coefficient)” value in data set [3] came out at 78000 M⁻¹ cm⁻¹.

On to `CN(C)c1ccc2c(c1)Oc1cc(O)ccc1C21OC(=O)c2ccccc21` (stereo not drawn) [dimethyl rhodol, reference compound], for which the “ϕ (quantum yield)” value in data set [1] was 0.21. Besides, in data set [1] (pH 7.3), the ϕ came to 0.21. Further, in data set [3] (Table 3), the ε is 60,000 M^−1 cm^−1, the λem turned out to be 546 nm and the λmax was determined as 518 nm. Also, in data set [3], the “ε (extinction coefficient)” value turned out to be 60000 M⁻¹ cm⁻¹.

For the compound `O=C1OC2(c3ccc(N4CCCCC4)cc3Oc3cc(N4CCCCC4)ccc32)c2ccccc21` [piperidine derivative, reference compound], the “ϕ (quantum yield)” value in data set [1] was determined as 0.10. The ϕ in data set [1] (pH 7.3) turned out to be 0.10. In addition, in data set [2], the “τ (fluorescence lifetime)” value was found to be 0.6 ns and the τ is recorded as 0.59 ns. Moreover, in data set [3] (Table 2), the ε is on record as 80,000 M^−1 cm^−1, the λem is recorded as 586 nm and the λmax stood at 560 nm.

Compound `Cl.N=c1ccc2c(-c3ccccc3C(=O)O)c3ccc(N)cc3oc-2c1` [rhodamine 110, reference compound] returned a ϕ in data set [1] (Table 2, 10 mM HEPES pH 7.3) of 0.88. Further, the “ϕ (quantum yield)” value in data set [1] (aqueous buffer) stood at 0.88. Further, in data set [2], the “τ (fluorescence lifetime)” value is reported as 3.3 ns and the τ was 3.26 ns. In data set [3] (Table 2), the ε is 76,000 M^−1 cm^−1, the λem was 520 nm and the λmax is recorded as 497 nm. Besides, the “ε (extinction coefficient)” value in data set [3] is 76000 M⁻¹ cm⁻¹.
